# Experimental data as given in patent publication US20170154163A1, “CLINICALLY RELEVANT SYNTHETIC LETHALITY BASED METHOD AND SYSTEM FOR CANCER PROGNOSIS AND THERAPY” (Ramot at Tel-Aviv University Ltd., priority 2015, published 2017).
# Like-named read-outs stand apart in the source and are kept apart here.
# Tests used:
# [1] = tested on: Liv7k cell line (oral cancer); assay: Drug repurposing screen: growth inhibition of oral cancer cell line under normoxia and hypoxia (nuclei count); assay type: cell-based; details: Homo sapiens; for inhibition at 10 µM: 72 h, read-out: Growth Inhibition (GI)
# Protocol: HPV-negative cell line derived from a T3N2b primary tumor of the tongue. The patient received no chemo/radiotherapy prior to tumor excision. Generously gifted by Professor Richard Shaw (Head and Neck Cancer Consultant, Liverpool, UK). Cells are maintained in keratinocyte SFM (Life Technologies), supplemented with 2 mM L-glutamine, 0.2 ng/ml epidermal growth factor (EGF) and 25 μg/ml bovine pituitary extract (BPE). The cell line was tested from mycoplasma contamination and authenticated by exome sequencing and CNV.
# 1397 compounds from the NIH Clinical Collection (Evotec, San Francisco, Calif.), LOPAC Pfizer (Sigma Aldrich), the Developmental Therapeutics Program (DTP)-Approved Oncology library and the FDA-Approved Drug Library (Selleck Chemicals) were tested at a single concentration of 10 μM. The libraries were received as 10 mM compounds in dimethyl sulfoxide (DMSO). Plates which conflicted with our plate layout were reformatted. The compounds were first diluted 1:50 in serum free media, and then further diluted 1:20 into to 96 well plates containing 5000 cells in 190 μl of keratinocyte SFM supplemented with 2 mM L-glutamine, 0.2 ng/ml EGF and 25 μg/ml BPE. 0.1% DMSO was used as a negative control, and staurosporine (Sigma Aldrich) at a concentration of 1 μM was used as a positive death control in all plates. Each drug was tested for 72 h under 21% and 0.1% O2. The cells were fixed using 4% formaldehyde after 72 h, and stained with DAPI dilactate (Sigma Aldrich). To assess viability, stained nuclei were counted using Perkin Elmer Operetta High Content Microscope.
# An experimental screen was designed for testing whether the clinical SL-network can discriminate between cytotoxic and non-cytotoxic drugs, when considering a wide range of oncology and non-oncology drugs. Transcriptomic profiles of an oral cancer cell line under normoxia and hypoxia were obtained. Based on these profiles the network predicted the cell line response to 139 oncology and 531 non-oncology drugs in each condition. […]
# [2] = tested on: pancreatic cancer cells (Capan-1); assay: Drug combination with olaparib, Combination Index by Chou-Talalay method (CompuSyn); assay type: cell-based, human; details: CI<0.9 denotes synergism
# Protocol: The experiment was conducted in triplicates.
SMILES,inhibition at 10 µM ([1]; hypoxia (0.1% O2)),inhibition at 10 µM ([1]; normoxia (21% O2)),IC50 ([1]; normoxia),median Combination Index (CI) [2]
CN(C/C=C/C#CC(C)(C)C)Cc1cccc2ccccc12 [terbinafine],45.2%,81.9%,5.8 µM,–
"COc1cc([C@@H]2c3cc4c(cc3[C@@H](O[C@@H]3O[C@@H]5CO[C@@H](C)O[C@H]5[C@H](O)[C@H]3O)[C@H]3COC(=O)[C@H]23)OCO4)cc(OC)c1O [Etoposide (VP16), etoposide]",–,–,–,0.718
"O=C(CCCCCCC(=O)Nc1ccccc1)NO [VORINOSTAT, vorinostat]",–,–,–,0.551
